{"source": "patent US20260152509A1", "about": "“DELIVERY OF THERAPEUTIC ALKALOID COMPOUNDS” (priority 2021, published 2026)", "key": {"[1]": {"assay_type": "physicochemical", "details": "for Conversion (%) / Notes (stability): 0.5 mM", "method": "The hydrolysis kinetics was under a certain temperature and measured by LCMS at a certain time interval. The corresponding LCMS chromatograms were recorded and the conversions were calculated. The hydrolysis conditions and the data were summarized in below table. LCMS spectra were obtained using Agilent 1200\\G1956A or SHIMADZU LCMS-2020. Standard LCMS conditions were as follows (running time 1.55 minutes):\nAcidic condition: Mobile Phase A: 0.0375% TFA in water (v/v). Mobile Phase B: 0.01875% TFA in acetonitrile (v/v); Column: Kinetex EVO C18 30*2.1 mm, 5 μm.\nBasic condition: Mobile Phase A: 0.025% NH3·H2O in water (v/v). Mobile Phase B: Acetonitrile; Column: Kinetex EVO C18 2.1×30 mm, 5 μm.\nConversion (%)=peak area 1/(peak area 1+peak area 2)*100%, peak area 1 is the integration of hydrolyzed product, peak area 2 is the integration of starting material."}, "[2]": {"experiment": "Pharmacokinetics of 047 and 016 after single oral 047 in mice", "details": "analyte after single PO 047 75 mg/kg, male C57BL/6 mice", "protocol": "Total twelve male mice were used in this study. Animals were administered through oral route with solution formulation of 047 at 75 mg/kg dose. The formulation vehicle used was normal saline. Blood samples (approximately 60 μL) were collected under light isoflurane anesthesia from a set of two mice at 0.25, 0.5, 1, 2, 4 and 8 h. The blood samples were collected at each time point in labeled micro centrifuge tube containing K2EDTA as anticoagulant and PMSF (100 mM; 10 μL/mL of blood) as a stabilizer. Plasma samples were separated by centrifugation of whole blood and stored below −70° C. until bioanalysis. Following blood collection, immediately animals were sacrificed followed by abdominal vena-cava was cut open and whole body was perfused from heart using 10 mL of normal saline. Brain samples were collected from set of two mice at 0.25, 0.5, 1, 2, 4 and 8 h. After isolation, brain samples were rinsed three times in ice cold normal saline (for 5-10 seconds/rinse using ˜10-20 mL normal saline in disposable petri dish for each rinse) and dried on blotting paper. Brain samples were homogenized using ice-cold phosphate buffer saline (pH-7.4) and PMSF (100 mM; 10 μL/mL of blood) as a stabilizer. Brain homogenates were stored below −70±10° C. until analysis. Total homogenate volume was three times of the brain weight.\nPlasma and brain samples were quantified by fit-for-purpose LC-MS/MS method."}, "SERT": {"biological_target": "T1, SERT (Homo sapiens, UniProt P31645)", "T1 construct": "expressed in transfected cells", "experiment": "SERT inhibition, Neurotransmitter Transportation Fluorescence assay", "assay_type": "cell-based", "details": "30 minutes at 37° C.", "method": "SERT inhibition was measured using a Neruotransmitter Transportation Fluorescence assay. […] Compounds were prepared by in assay buffer (20 mM HEPES, 0.1% BSA). The compounds were added to the plated cells and incubated for 30 minutes at 37° C. 25 μL of dye solution (Molecular Devices Neurotransmitter Transporter Uptake Assay Kit) was added per well and incubated for 30 minutes at 37° C. The plates were then read on a plate reader."}, "[3]": {"details": "pH = 7.4, 25° C., PBS (20 mM), 0-24 h"}, "[4]": {"details": "pH = 2.0, 25° C., 0.01M HCl, 0-24 h"}, "[5]": {"details": "pH = 2.0, 37° C., 0.01M HCl, 0-24 h"}}, "note": "Like-named read-outs stand apart in the source and are kept apart here.", "data": [{"smiles": "COc1ccc(C23C=CC(=O)CC2N(C)CC3)cc1OC", "note": "(racemic) [Compound 016, 3a-(3,4-dimethoxyphenyl)-1-methyl-2,3,7,7a-tetrahydroindol-6-one, reference compound]", "values": [{"measurement": "further hydrolysis (in words)", "setting": "[1]; pH 2.0 in 0.01 M HCl to pH 7.4 in 20 mM PBS, 25° C. to 40° C.", "result": "did not further hydrolyze"}, {"measurement": "Conversion (%)", "setting": "[1]; [3]", "result": 0, "unit": "%"}, {"measurement": "Notes (stability)", "setting": "[1]; [3]", "result": "Stable"}, {"measurement": "Brain concentrations quantifiable up to", "setting": "[2]", "result": "up to 4 h"}]}, {"smiles": "COc1ccc([C@@]23C=CC4(C[C@@H]2N(C)CC3)SCCS4)cc1OC", "note": "(stereo in doubt) [Compound 017, 3′a-(3,4-dimethoxyphenyl)-1′-methyl-spiro[1,3-dithiolane-2,6′-2,3,7,7a-tetrahydroindole]]", "values": [{"measurement": "Conversion (%)", "setting": "[1]; [4]", "result": 0, "unit": "%"}, {"measurement": "Notes (stability)", "setting": "[1]; [4]", "result": "Stable"}, {"measurement": "Conversion (%)", "setting": "[1]; [5]", "result": 0, "unit": "%"}, {"measurement": "Notes (stability)", "setting": "[1]; [5]", "result": "Stable"}]}, {"smiles": "COc1ccc(C23C=CC4(CC2N(C)CC3)OCCO4)cc1OC", "note": "(stereo not drawn) [Compound 015, (3′aR,7′aS)-3′a-(3,4-dimethoxyphenyl)-1′-methyl-spiro[1,3-dioxolane-2,6′-2,3,7,7a-tetrahydroindole]]", "values": [{"measurement": "conversion to mesembrenone (in words)", "setting": "[1]; pH 2", "result": "converted to mesembrenone"}]}, {"smiles": "COc1ccc([C@@]23C=CC4(C[C@@H]2N(C)CC3)OCCO4)cc1OC", "note": "[Compound 015, (3′aR,7′aS)-3′a-(3,4-dimethoxyphenyl)-1′-methyl-spiro[1,3-dioxolane-2,6′-2,3,7,7a-tetrahydroindole]]", "values": [{"measurement": "Conversion (%)", "setting": "[1]; pH = 2.0, 25° C., 0.01M HCl, 1 min", "result": 19, "unit": "%"}, {"measurement": "Conversion (%)", "setting": "[1]; pH = 2.0, 25° C., 0.01M HCl, 10 min", "result": 46, "unit": "%"}, {"measurement": "Conversion (%)", "setting": "[1]; pH = 2.0, 25° C., 0.01M HCl, 30 min", "result": 66, "unit": "%"}, {"measurement": "Conversion (%)", "setting": "[1]; pH = 2.0, 25° C., 0.01M HCl, 120 min", "result": 99, "unit": "%"}]}, {"smiles": "COc1ccc([C@@]23C=CC4(C[C@@H]2N(C)CC3)OCCO4)cc1OC", "note": "[Compound 047, (3′aR,7′aS)-3′a-(3,4-dimethoxyphenyl)-1′-methyl-spiro[1,3-dioxolane-2,6′-2,3,7,7a-tetrahydroindole]]", "values": [{"measurement": "Brain concentrations quantifiable up to", "setting": "[2]", "result": "up to 4 h"}, {"measurement": "IC50", "setting": "SERT", "result": 581, "unit": "nM"}]}, {"smiles": "COc1ccc([C@]23C=CC4(C[C@H]2N(C)CC3)OCCO4)cc1OC", "note": "[Compound 048, (3′aS,7′aR)-3′a-(3,4-dimethoxyphenyl)-1′-methyl-spiro[1,3-dioxolane-2,6′-2,3,7,7a-tetrahydroindole]]", "values": [{"measurement": "IC50", "setting": "SERT", "result": 939, "unit": "nM"}]}, {"smiles": "COc1ccc([C@@]23C=CC4(C[C@@H]2N(C)CC3)SCCS4)cc1OC", "note": "[Compound 049, (3′aR,7′aS)-3′a-(3,4-dimethoxyphenyl)-1′-methyl-spiro[1,3-dithiolane-2,6′-2,3,7,7a-tetrahydroindole]]", "values": [{"measurement": "IC50", "setting": "SERT", "result": 159, "unit": "nM"}]}, {"smiles": "COc1ccc([C@]23C=CC4(C[C@H]2N(C)CC3)SCCS4)cc1OC", "note": "[Compound 050, (3′aS,7′aR)-3′a-(3,4-dimethoxyphenyl)-1′-methyl-spiro[1,3-dithiolane-2,6′-2,3,7,7a-tetrahydroindole]]", "values": [{"measurement": "IC50", "setting": "SERT", "result": 405, "unit": "nM"}]}]}
